# Test results as given in patent US10874108B2, “Anti-microbial compositions” (5D HEALTH PROTECTION GROUP LTD, priority 2016, dated 2020).
# Experiments:
# [1] = Displacement of metals from EDTA complexes by physiological saline; type: physicochemical
# Experimental: Adding saline to the suspension of Ag4(EDTA), the suspension quickly precipitated a solid (AgCl). The precipitate was filtered off, washed with deionized water 4 times; and then dried in a vacuum oven at 50° C. in a dark flask to avoid exposure to direct light.
# The displacement experiment described above was repeated for compounds 1-4 to provide the percent of the displacement of silver, copper, zinc from the EDTA complexes by physiological saline.
# [2] = Elution from collagen films; type: physicochemical; conditions: for Elution in saline (ppm) EDTA / Elution in saline (ppm) Zinc / Elution in water (ppm) EDTA / Elution in saline (ppm) Silver / Elution in water (ppm) Silver / Elution in water (ppm) Zinc: collagen film; for Overall zinc eluted out from collagen films: 5 days; for In total EDTA eluted out from collagen films: over 5 days; for In total silver eluted out from collagen films: over the 5 days
# Experimental: The EDTA compounds 1-4 were added to collagen films and then investigated for elution of these complexes. The collagen film was prepared from a solution of oxidized bovine atelocollagen type I, glycerol and EDTA compounds 1-4. 1.8 ml 10% glycerol solution was added into 20 ml oxidized bovine atelocollagen type I solution. 5 ml EDTA complex were added into the solution with vigorous stirring, and the mixture was adjusted to pH=7.0 by dropwise addition of 5% NaOH. The final solution was adjusted to 30 ml by ultrapure water and was cast into PVC mould. The solution was dried in a fume hood overnight. All the collagen films, impregnated with the EDTA complexes were immersed in water, saline or simulated wound fluid.
# [3] = system: S. aureus 24-hour CDC biofilms; assay: Colonies after exposure of 24-hour CDC biofilms to EDTA compounds; type: cell-based
# [4] = system: P. aeruginosa 24-hour CDC biofilms; assay: as above; type: cell-based
# P. aeruginosa biofilms [5] = assay: CDC bioreactor biofilm LR/kill, EDTA compounds at 100 ppm silver; type: cell-based; conditions: 100 ppm of silver, exposed 24 hours
# Experimental: (§1) Microbial cultures were exposed to compounds for 24 hours. Compounds were diluted according to 100 ppm of silver. Biofilms were formed using the CDC bioreactor. Samples were performed in triplicate.
# S. aureus biofilms = assay: as above; type: cell-based; conditions: 100 ppm of silver, exposed 24 hours
# Experimental: as §1
# P. aeruginosa biofilms [6] = assay: MBEC plate 48-hour biofilm, liquid EDTA-Ag2-Zn compound; type: cell-based
# Excerpt: Biofilms were formed using the MBEC plate method. Log reduction (LR) values are expressed with standard error. N.D (not determined) is stated when no colonies were detected upon enumeration.
# [7] = day 1, listed as EDTA compound 4
compound,measurement,setting,value
"O=C([O-])CN(CCN(CC(=O)[O-])CC(=O)[O-])CC(=O)[O-].[Ag+].[Ag+].[Zn+2] [Compound 4, Ag2ZnEDTA]",Displacement (%) Silver,[1],80.77 ± 6.45%
same,Displacement (%) Zinc,[1],38.86 ± 9.01 %
same,Elution in saline (ppm) EDTA,[2]; day 1,9.75 ± 1.31 ppm
same,Elution in saline (ppm) Zinc,[2]; day 1,5.65 ± 0.06 ppm
same,Elution in water (ppm) EDTA,[2]; day 1,9.25 ± 0.90 ppm
same,Elution in saline (ppm) Silver,[2]; [7],20.34±1.42 ppm
same,Elution in water (ppm) Silver,[2]; [7],19.08±0.92 ppm
same,Elution in water (ppm) Zinc,[2]; [7],9.86±0.39 ppm
same,Elution in saline (ppm) EDTA,[2]; day 2,0.47 ± 0.35 ppm
same,Elution in saline (ppm) Silver,[2]; day 2,14.49 ± 2.63 ppm
same,Elution in saline (ppm) Zinc,[2]; day 2,6.26 ± 0.67 ppm
same,Elution in water (ppm) EDTA,[2]; day 2,0.96 ± 0.64 ppm
same,Elution in water (ppm) Silver,[2]; day 2,12.61 ± 1.04 ppm
same,Elution in water (ppm) Zinc,[2]; day 2,9.60 ± 0.33 ppm
same,Elution in saline (ppm) EDTA,[2]; day 3,0.40 ± 0.08 ppm
same,Elution in saline (ppm) Silver,[2]; day 3,15.23 ± 2.41 ppm
same,Elution in saline (ppm) Zinc,[2]; day 3,6.44 ± 0.60 ppm
same,Elution in water (ppm) EDTA,[2]; day 3,1.53 ± 1.08 ppm
same,Elution in water (ppm) Silver,[2]; day 3,10.64 ± 1.19 ppm
same,Elution in water (ppm) Zinc,[2]; day 3,8.08 ± 0.70 ppm
same,Elution in saline (ppm) EDTA,[2]; day 4,−0.13 ± 0.90 ppm
same,Elution in saline (ppm) Silver,[2]; day 4,12.93 ± 2.10 ppm
same,Elution in saline (ppm) Zinc,[2]; day 4,5.58 ± 0.33 ppm
same,Elution in water (ppm) EDTA,[2]; day 4,0.24 ± 0.28 ppm
same,Elution in water (ppm) Silver,[2]; day 4,9.56 ± 0.79 ppm
same,Elution in water (ppm) Zinc,[2]; day 4,6.24 ± 0.40 ppm
same,Elution in saline (ppm) EDTA,[2]; day 5,−0.07 ± 0.93 ppm
same,Elution in saline (ppm) Silver,[2]; day 5,13.30 ± 2.14 ppm
same,Elution in saline (ppm) Zinc,[2]; day 5,5.18 ± 0.15 ppm
same,Elution in water (ppm) EDTA,[2]; day 5,1.17 ± 1.31 ppm
same,Elution in water (ppm) Silver,[2]; day 5,10.35 ± 0.73 ppm
same,Elution in water (ppm) Zinc,[2]; day 5,6.53 ± 0.23 ppm
same,Overall zinc eluted out from collagen films,[2]; in saline,27.36%
same,In total EDTA eluted out from collagen films,[2]; in saline,13.44%
same,In total silver eluted out from collagen films,[2]; in saline,66.22%
same,Overall zinc eluted out from collagen films,[2]; in water,37.89%
same,In total EDTA eluted out from collagen films,[2]; in water,16.95%
same,In total silver eluted out from collagen films,[2]; in water,54.03%
same,Number of colonies detected,[3],0 Cfu/ml
same,Number of colonies detected,[4],0 Cfu/ml
same,Kill %,P. aeruginosa biofilms [5],99.95%
same,LR,P. aeruginosa biofilms [5],3.34 ± 0.11
same,Kill %,S. aureus biofilms,99.98%
same,LR,S. aureus biofilms,3.73 ± 0.18
same,% Kill,"P. aeruginosa biofilms [6]; 62.5 ppm, treatment 1 hours",100%
same,% Kill,"P. aeruginosa biofilms [6]; 62.5 ppm, treatment 24 hours",100%
same,% Kill,"P. aeruginosa biofilms [6]; 125 ppm, treatment 1 hours",100%
same,% Kill,"P. aeruginosa biofilms [6]; 125 ppm, treatment 24 hours",100%
same,% Kill,"P. aeruginosa biofilms [6]; 250 ppm, treatment 1 hours",100%
same,% Kill,"P. aeruginosa biofilms [6]; 250 ppm, treatment 24 hours",100%
same,% Kill,"P. aeruginosa biofilms [6]; 500 ppm, treatment 1 hours",100%
